In brackets after ≈: the same amount, converted by molar mass.
Assays:
[1] = tested on: MCF-7 cells; experiment: MTT antiproliferative activity assay, MCF-7; assay type: cell-based, human; settings: MTT, 48 h treatment, average of three replicates
Description: (§1) Hep-2 (larynx carcinoma, ATCC: CCL-23), MCF-7 (breast epithelial adenocarcinoma, ATCC: HTB-22), and Vero (African green monkey kidney, ATCC: CCL-81) cell lines were kindly provided by Dr. Mona Hassuneh (Department of Biological Sciences, University of Jordan). Cells were grown in Minimum Essential Medium Eagle (Gibco, Paisley UK) supplemented with 10% heat inactivated fetal bovine serum (Gibco, Paisley UK), 29 μg/mL L-glutamine, and 40 μg/mL gentamicin. Cells were incubated in a humidified atmosphere of 5% CO2 at 37 °C.
(§2) The antiproliferative activity of Inula viscosa compounds was measured using the MTT (3-(4,5-dimethylthiazol-2-yl)-2,5-diphenyltetrazolium bromide) assay (Promega, Madison, WI, USA). The assay detects the reduction of MTT by mitochondrial dehydrogenase to blue formazan product, which reflects the normal function of mitochondria and cell viability. Exponentially growing cells were washed and seeded at 17,000 cells/well for Hep-2 cell line and 11,000 cells/ well for MCF-7 cell line (in 200 μL of growth medium) in 96 well microplates (Nunc, Roskilde, Denmark). After 24 h incubation, a partial monolayer was formed then the media was removed and 200 μL of the medium containing the compound (initially dissolved in DMSO) were added and re-incubated for 48 h. Then 100 μL of the medium were aspirated and 15 μL of the MTT solution were added to the remaining medium (100 μL) in each well. After 4 h contact with the MTT solution, blue crystals were formed. One hundred μL of the stop solution were added and incubated further for 1 h.
(§3) Reduced MTT was assayed at 550 nm using a microplate reader (Biotek, Winooski, VT, USA). Control groups received the same amount of DMSO (0.1%).Untreated cells were used as a negative control while, cells treated with vincristine sulfate were used as a positive control. Eight concentrations (150, 100, 50, 20, 10, 5, 2, and 1 μg/mL) were prepared from each compound and tested against the three cell lines. IC50 values were calculated as the concentrations that show 50% inhibition of proliferation on any tested cell line. Stock solutions of the compounds were dissolved in (DMSO) then diluted with the medium and sterilized using 0.2 μm membrane filters. The toxicity of DMSO was determined and the final dilution of compounds used for treating the cells contained not more than 0.1% (non toxic concentration) DMSO. IC50 values were reported as the average of three replicates. The antiproliferative effect of the tested compounds was determined by comparing the optical density of the treated cells against the optical density of the control (cells treated with media containing 0.1% DMSO).

[2] = tested on: Hep-2 cells; experiment: MTT antiproliferative activity assay, Hep-2; assay type: cell-based; settings: MTT, 48 h treatment, average of three replicates
Description: as §1, §2, §3

[3] = tested on: Vero cells; experiment: MTT antiproliferative activity assay, Vero; assay type: cell-based, African green monkey; settings: MTT, 48 h treatment, average of three replicates
Description: as §1, §2, §3

[4] = tested on: Methicillin resistant Staphylococcus aureus (MRSA); experiment: Microtiter plate dilution MIC, MRSA; assay type: cell-based; settings: clinical isolate, 24 h, 100% inhibition; for MIC: Staphylococcus aureus, MRSA, read-out: Minimum inhibitory concentration (MIC) MRSA
Description: (§4) The microbial strains used in this study were Escherichia coli (ATCC 10798), Salmonella typhimurium (ATCC14028), Methicillin resistant Staphylococcus aureus (MRSA, Clinical isolate), Bacillus cereus (Toxigenic strain TS), and Candida albicans (ATCC 90028). Bacterial strains were stocked onto nutrient agar slant at 4 °C, and Candida albicans was stocked onto malt agar slant at 4 °C.
(§5) The microtiter plate dilution method was used to determine the MIC (minimum inhibitory concentration) of compounds under study. Sterile 96-well microplates (Nunc) were used for the assay. Stock compounds were dissolved in DMSO so that the final concentrations in micro wells were less than 1% DMSO and solvent controls were run at these concentrations. Positive controls of penicillin G and tetracycline (Oxoid, Hampshire, UK) were prepared at the following concentrations 2, 4, 8, 16, 31, 62.5, 125, and 250 μg/mL. 1% DMSO was used as a solvent control. Compounds were diluted to twice the desired initial test concentration (250 µg/mL) with Muller Hinton broth (MHB) (Oxoid). All wells, except the first were filled with MHB (50 μL). Compounds (100 μL) were added to the first well and serial two-fold dilutions were made down to the desired minimum concentration (2 μg/mL). An over-night culture of bacteria suspended in MHB was adjusted to turbidity equal to 0.5 McFarland standard. The plates were inoculated with bacterial suspension (50 μL/well) and incubated at 37 °C for 24 h. Then the turbidity was measured using micro-plate reader (Biotek) at 620 nm wavelength. The same procedure was used to determine the antifungal activity of compounds against Candida albicans. The medium used was malt extract broth. The yeast cells were suspended in 0.85% saline, with an optical density equivalent to 0.5 McFarland standard, and diluted 1:100 in malt extract broth to obtain the working concentration. After 24 h incubation with each compound, the turbidity was measured at 530 nm wavelength using a spectrophotometer (Biotek). Percentage inhibition for tested microorganisms was calculated using the following formula:
(§6) MIC was determined as the lowest concentration of the compound that causes complete inhibition (100%) of each microorganism.

[5] = tested on: Escherichia coli; experiment: Microtiter plate dilution MIC, E. coli; assay type: cell-based; settings: ATCC 10798, 24 h, 100% inhibition; for MIC: Escherichia coli, ATCC10798, read-out: Minimum inhibitory concentration (MIC) E.c
Description: as §4, §5, §6

[6] = tested on: Salmonella typhimurium; experiment: Microtiter plate dilution MIC, S. typhimurium; assay type: cell-based; settings: ATCC14028, 24 h, 100% inhibition; for MIC: Salmonella enterica, ATCC 14028 / TYPHIMURIUM, read-out: Minimum inhibitory concentration (MIC) S.t
Description: as §4, §5, §6

[7] = tested on: Bacillus cereus; experiment: Microtiter plate dilution MIC, B. cereus; assay type: cell-based; settings: Toxigenic strain TS, 24 h, 100% inhibition; for MIC: Bacillus cereus, read-out: Minimum inhibitory concentration (MIC) B.c
Description: as §4, §5, §6

[8] = tested on: Candida albicans; experiment: Microtiter plate dilution MIC, C. albicans; assay type: cell-based; settings: ATCC 90028, malt extract broth, 24 h, 100% inhibition
Description: as §4, §5, §6

Molecule | IC50 MCF-7 [1] | IC50 Hep-2 [2] | IC50 Vero [3] | Minimum inhibitory concentration (MIC) MRSA [4] | Minimum inhibitory concentration (MIC) E.c [5] | Minimum inhibitory concentration (MIC) S.t [6] | Minimum inhibitory concentration (MIC) B.c [7] | Minimum inhibitory concentration (MIC) C.a [8] | MIC [4] | MIC [5] | MIC [6] | MIC [7] | IC50 ([1]; Homo sapiens, MCF7, read-out: IC50 MCF-7) | IC50 ([2]; Homo sapiens, HEp-2, read-out: IC50 Hep-2) | IC50 ([3]; Chlorocebus sabaeus, Vero, read-out: IC50 Vero) | MIC ([8]; Candida albicans, ATCC90028, read-out: Minimum inhibitory concentration (MIC) C.a)
COc1cc(O)c2c(c1)O[C@H](c1ccc(O)c(O)c1)[C@@H](OC(C)=O)C2=O [3-O-Acetylpadmatin] | >150 µg/mL | >150 µg/mL | >150 µg/mL | >250 µg/mL | >250 µg/mL | >250 µg/mL | >250 µg/mL | >250 µg/mL |  |  |  |  |  |  |  | 
CC1(C)S[C@@H]2[C@H](NC(=O)Cc3ccccc3)C(=O)N2[C@H]1C(=O)O [Penicillin G, reference compound] |  |  |  |  |  |  |  |  | > 250 µg/mL | 125 µg/mL (≈ 374 µM) | 125 µg/mL (≈ 374 µM) | > 250 µg/mL |  |  |  | 
C=C(C(=O)O)[C@@H]1CC[C@@]2(C)CCC[C@@](C)(O)[C@@H]2C1 [Ilicic acid] |  |  |  |  |  |  |  |  | > 250 µg/mL | > 250 µg/mL | > 250 µg/mL | > 250 µg/mL | > 150 µg/mL | > 150 µg/mL | > 150 µg/mL | > 250 µg/mL
C=C1C[C@@H]2OC(=O)[C@@H](C)[C@H]2C[C@@H]2[C@@H]1CC[C@@]2(C)O [11α,13-Dihydroinuviscolide] | >150 µg/mL | >150 µg/mL | >150 µg/mL | >250 µg/mL | >250 µg/mL | >250 µg/mL | >250 µg/mL | >250 µg/mL |  |  |  |  |  |  |  | 
2-Desacetoxyxanthinin | >150 µg/mL | >150 µg/mL | >150 µg/mL | >250 µg/mL | >250 µg/mL | >250 µg/mL | >250 µg/mL | >250 µg/mL |  |  |  |  |  |  |  | 
Xepetin | >150 µg/mL | >150 µg/mL | >150 µg/mL | >250 µg/mL | >250 µg/mL | >250 µg/mL | >250 µg/mL | >250 µg/mL |  |  |  |  |  |  |  | 
C=C(C(=O)O)[C@@H]1CC[C@@]2(C)CC[C@@H](O)C(=C)C2C1 (stereo partly shown) [Viscic acid] | >150 µg/mL | >150 µg/mL | >150 µg/mL | >250 µg/mL | >250 µg/mL | >250 µg/mL | >250 µg/mL | >250 µg/mL |  |  |  |  |  |  |  | 

— publication PMC6268972, “Antiproliferative, Antimicrobial and Apoptosis Inducing Effects of Compounds Isolated from Inula viscosa” (Molecules, 2012)
